The subject of one series is Plasmopara viticola. Kind of series: Plasmopara test (grapevines)/preventive. Format: in vivo. Particulars: preventive spray, 10 ppm of active ingredient, evaluated 6 days after inoculation, 0% = untreated control, 100% = no disease. How it is done:
To produce a suitable preparation of active compound, 1 part by weight of active compound is mixed with the stated amounts of solvent and emulsifier, and the concentrate is diluted with water to the desired concentration.
To test for preventive activity, young plants are sprayed with the preparation of active compound at the stated rate of application. After the spray coating has dried on, the plants are inoculated with an aqueous spore suspension of Plasmopara viticola and then remain for 1 day in an incubation cabinet at approximately 20° C. and a relative atmospheric humidity of 100%. The plant is subsequently placed for 4 days in a greenhouse at approximately 21° C. and a relative atmospheric humidity of approximately 90%. The plants are then misted and placed for 1 day in an incubation cabinet.
The test is evaluated 6 days after the inoculation. 0% means an efficacy which corresponds to that of the untreated control, while an efficacy of 100% means that no disease is observed.

A short description of series [1]: Measurement of logP values by HPLC on reversed phase columns (EEC directive 79/831 Annex V.A8). Type of series: physicochemical. To be noted: pH 2.7, 0.1% formic acid in water / acetonitrile gradient, calibration with alkan-2-ones. The procedure: Measurement of logP values was performed according EEC directive 79/831 Annex V.A8 by HPLC (High Performance Liquid Chromatography) on reversed phase columns with the following methods:
Measurement of LC-MS was done at pH 2.7 with 0.1% formic acid in water and with acetonitrile (contains 0.1% formic acid) as eluent with a linear gradient from 10% acetonitrile to 95% acetonitrile.
Calibration was done with not branched alkan2-ones (with 3 to 16 carbon atoms) with known logP-values (measurement of logP values using retention times with linear interpolation between successive alkanones). lambda-maX-values were determined using UV-spectra from 200 nm to 400 nm and the peak values of the chromatographic signals.

The subject of the next series is Phytophthora infestans. Format: in vivo. Particulars: tomato plants, preventive spray, 500 ppm of active ingredient, evaluated 7 days after inoculation; 0% = untreated control, 100% = no disease.

For orientation: Log P means the decadic logarithm of the partition coefficient of the neutral form, usually between octanol and water. `Cc1nnnn1C(=NOCc1csc(NC(=O)COCC2CC2)n1)c1ccccc1` [Example 33]: the Eff. % in the series on Plasmopara viticola is listed as 94%. The “Log P” value in series [1] came out at 3.11.

`CC(OCC1CCC1)C(=O)Nc1cccc(CON=C(c2ccccc2)c2nnnn2C)n1` (stereo not shown) [Example 12]: the Eff. % in the series on Phytophthora infestans was 100%; with Plasmopara viticola it was 84%. The “Log P” value in series [1] amounted to 4.16.

In the case of `Cn1nnnc1C(=NOCc1csc(NC(=O)COCC2CCCC2)n1)c1ccccc1` [Example 16], the Eff. % was 97% in the series on Phytophthora infestans and 90% in the series on Plasmopara viticola. In series [1], the log partition coefficient (Log P) was 3.9.

For the compound `Cn1nnnc1C(=NOCc1cccc(NC(=O)COCC2CCC2)n1)c1ccccc1` [Example 4], the values for the Eff. % with Phytophthora infestans and with Plasmopara viticola were 97% and 80%, respectively. Besides, in series [1], the “Log P” value is given as 3.83.

As to `Cn1nnnc1C(=NOCc1csc(NC(=O)COCC2CCC2)n1)c1ccccc1` [Example 15], the Eff. % in the series on Phytophthora infestans and in the series with Plasmopara viticola was 100% throughout. Moreover, the “Log P” value in series [1] is 3.52.

For `Cn1nnnc1C(=NOCc1csc(NC(=O)COCC2CCCCC2)n1)c1ccccc1` [Example 17], the values for the Eff. % in the series on Phytophthora infestans and with Plasmopara viticola were 100% and 94%, respectively. Further, the “Log P” value in series [1] amounted to 4.29.

For `CC(SCc1ccccc1)C(=O)Nc1nc(CON=C(c2ccccc2)c2nnnn2C)cs1` (stereo not shown) [Example 71], the Eff. % in the series with Phytophthora infestans came to 100%; with Plasmopara viticola, 82%. The “Log P” value in series [1] stood at 3.8.

As to `CC(OCC1CCCO1)C(=O)Nc1nc(CON=C(c2ccccc2)c2nnnn2C)cs1` (stereo not shown) [Example 60], the Eff. % came out at 100% with Phytophthora infestans and 85% in the series on Plasmopara viticola. Further, the “Log P” value in series [1] came out at 3.15.

With `Cn1nnnc1C(=NOCc1cccc(NC(=O)CSCC2CC2)n1)c1ccccc1` [Example 67], the Eff. % in the series on Plasmopara viticola amounted to 78%. For the same compound, the “Log P” value in series [1] was 3.51.

In the case of `Cn1nnnc1C(=NOCc1csc(NC(=O)COCC2CC2)n1)c1ccccc1` [Example 13], the Eff. % in the series with Plasmopara viticola was 79%. Moreover, in series [1], the “Log P” value came out at 3.04.

`COC(C)CC(CC(=O)Nc1cccc(CON=C(c2ccccc2)c2nnnn2C)n1)OC` (stereo not shown) [Example 96]: the Eff. % came to 100% in the series with Phytophthora infestans and 78% in the series on Plasmopara viticola. Moreover, the “Log P” value in series [1] worked out at 2.9.

For `Cc1ccccc1CSCC(=O)Nc1cccc(CON=C(c2ccccc2)c2nnnn2C)n1` [Example 65], the Eff. % in the series on Plasmopara viticola is listed as 84%.

For `CC(OCC1CC1)C(=O)Nc1ccc(F)c(CON=C(c2ccccc2)c2nnnn2C)n1` (stereo not shown) [Example 9], the figures for the Eff. % with Phytophthora infestans and in the series with Plasmopara viticola were 100% and 89%, respectively. For the same compound, the “Log P” value in series [1] is listed as 3.71.

As for `Cn1nnnc1C(=NOCc1cccc(NC(=O)OCCCOC2CCCC2)n1)c1ccccc1` [Example 98], the Eff. % was found to be 100% with Phytophthora infestans and 81% in the series on Plasmopara viticola. Moreover, the “Log P” value in series [1] turned out to be 4.14.

With `Cc1ccccc1CSCC(=O)Nc1nc(CON=C(c2ccccc2)n2nnnc2C)cs1` [Example 88], the Eff. % with Phytophthora infestans is listed as 100%; with Plasmopara viticola, 84%. Further, the “Log P” value in series [1] is given as 4.06.

Consider `Cc1nnnn1C(=NOCc1cccc(NC(=O)COCC2CCC2)n1)c1ccccc1` [Example 25], for which the Eff. % in the series on Phytophthora infestans is recorded as 97%; with Plasmopara viticola it was 80%. In addition, in series [1], the lipophilicity (Log P) is reported as 3.92.

Turning to `Cc1nnnn1C(=NOCc1csc(NC(=O)COCC2CCC2)n1)c1ccccc1` [Example 35], the Eff. % in the series with Phytophthora infestans is 100%; in the series with Plasmopara viticola, 91%. The lipophilicity (Log P) in series [1] is listed as 3.59.

In the case of `Cn1nnnc1C(=NOCc1cccc(NC(=O)C2Cc3ccccc32)n1)c1ccccc1` (stereo not shown) [Example 91], the Eff. % in the series with Plasmopara viticola was 77%. In series [1], the “Log P” value is reported as 3.58.

For the compound `CC(OCC1CCCC1)C(=O)Nc1nc(CON=C(c2ccccc2)c2nnnn2C)cs1` (stereo not shown) [Example 19], the values for the Eff. % in the series with Phytophthora infestans and with Plasmopara viticola were 100% and 91%, respectively. In series [1], the lipophilicity (Log P) amounted to 4.25.

Regarding `COC(C)CC(CC(=O)Nc1nc(CON=C(c2ccccc2)c2nnnn2C)cs1)OC` (stereo not shown) [Example 103], the Eff. % with Phytophthora infestans is given as 95%. In series [1], the “Log P” value stood at 2.78.

Turning to `Cc1nnnn1C(=NOCc1cccc(NC(=O)COCC2CCCCC2)n1)c1ccccc1` [Example 27], in the series on Phytophthora infestans, the Eff. % turned out to be 95%. For the same compound, in series [1], the “Log P” value is 4.76.

As to `Cn1nnnc1C(=NOCc1csc(NC(=O)CSC2CCCCC2)n1)c1ccccc1` [Example 76], the Eff. % in the series on Phytophthora infestans is on record as 100%. Also, the “Log P” value in series [1] came to 3.92.

As to `CC(C)CCOCC(=O)Nc1nc(CON=C(c2ccccc2)c2nnnn2C)cs1` [Example 45], the figures for the Eff. % with Phytophthora infestans and with Plasmopara viticola were 100% and 91%, respectively. In addition, in series [1], the “Log P” value is 3.8.

In turn, `Cc1nnnn1C(=NOCc1cccc(NC(=O)CCSCc2ccccc2)n1)c1ccccc1` [Example 112] displayed an Eff. % in the series with Phytophthora infestans of 88%. Besides, the “Log P” value in series [1] is 3.89.

For `Cc1nnnn1C(=NOCc1csc(NC(=O)CSC2CCCCC2)n1)c1ccccc1` [Example 89], the Eff. % in the series on Phytophthora infestans was found to be 100%. Further, in series [1], the “Log P” value was found to be 3.96.

Compound `Cn1nnnc1C(=NOCc1cccc(NC(=O)OCC(C)(C)OCc2ccccc2)n1)c1ccccc1` [Example 68] gave an Eff. % with Phytophthora infestans of 100%. The “Log P” value in series [1] worked out at 4.34.

Turning to `Cc1nnnn1C(=NOCc1csc(NC(=O)C(C)OCC2CCCCO2)n1)c1ccccc1` (stereo not shown) [Example 62], in the series with Phytophthora infestans, the Eff. % is on record as 98%. Moreover, in series [1], the lipophilicity (Log P) is listed as 3.69.

`Cc1nnnn1C(=NOCc1csc(NC(=O)COCC2CCCCC2)n1)c1ccccc1` [Example 37] showed an Eff. % in the series with Phytophthora infestans of 100%. Further, the “Log P” value in series [1] was determined as 4.36.

In the series on Phytophthora infestans, `Cc1nnnn1C(=NOCc1cccc(NC(=O)COCCC2CCCCC2)n1)c1ccccc1` [Example 30] showed an Eff. % of 95%. Besides, in series [1], the “Log P” value is recorded as 5.08.

Regarding `CC(OCC1CCC1)C(=O)Nc1nc(CON=C(c2ccccc2)c2nnnn2C)cs1` (stereo not shown) [Example 22], the Eff. % in the series with Phytophthora infestans came out at 100%; with Plasmopara viticola, 88%. For the same compound, the lipophilicity (Log P) in series [1] turned out to be 3.83.

For `Cc1nnnn1C(=NOCc1csc(NC(=O)CSCc2cccs2)n1)c1ccccc1` [Example 84], the Eff. % in the series on Phytophthora infestans is given as 98%. The “Log P” value in series [1] was determined as 3.51.

`Cn1nnnc1C(=NOCc1cccc(NC(=O)COCC2CCCCC2)n1)c1ccccc1` [Example 6] displayed an Eff. % in the series on Phytophthora infestans of 95%. Besides, the “Log P” value in series [1] is recorded as 4.63.

As to `Cc1nnnn1C(=NOCc1csc(NC(=O)C(C)OCC2CCCC2)n1)c1ccccc1` (stereo not shown) [Example 39], in the series with Phytophthora infestans, the Eff. % amounted to 100%. Also, the “Log P” value in series [1] was 4.31.

`Cc1nnnn1C(=NOCc1cccc(NC(=O)CCSCc2ccc(F)cc2)n1)c1ccccc1` [Example 111] registered an Eff. % with Phytophthora infestans of 90%. In addition, the “Log P” value in series [1] was determined as 3.92.

`Cn1nnnc1C(=NOCc1csc(NC(=O)CSCc2cccs2)n1)c1ccccc1` [Example 69] registered an Eff. % in the series with Phytophthora infestans of 95%. For the same compound, the “Log P” value in series [1] was found to be 3.46.

`Cc1nnnn1C(=NOCc1cccc(NC(=O)CSC2CCCC2)n1)c1ccccc1` [Example 80]: the Eff. % in the series with Phytophthora infestans was 100%. The “Log P” value in series [1] is recorded as 3.92.

As to `CC(OCc1ccccc1)C(=O)Nc1nc(CON=C(c2ccccc2)c2nnnn2C)cs1` (stereo not shown) [Example 49], in the series with Plasmopara viticola, the Eff. % turned out to be 92%. Moreover, the “Log P” value in series [1] amounted to 3.71.

As to `Cn1nnnc1C(=NOCc1cccc(NC(=O)CCSCc2ccc(F)cc2)n1)c1ccccc1` [Example 100], the Eff. % in the series with Phytophthora infestans is 95%. Also, the “Log P” value in series [1] came to 3.87.

In the case of `C=CCSCC(=O)Nc1nc(CON=C(c2ccccc2)n2nnnc2C)cs1` [Example 83], the Eff. % with Phytophthora infestans amounted to 88%. In series [1], the “Log P” value turned out to be 3.15.

`Cc1ccccc1CSCC(=O)Nc1cccc(CON=C(c2ccccc2)n2nnnc2C)n1` [Example 78] had an Eff. % in the series on Phytophthora infestans of 100%. Besides, the “Log P” value in series [1] was 4.06.

Regarding `Cn1nnnc1C(=NOCc1csc(NC(=O)CCSCc2ccccc2)n1)c1ccccc1` [Example 108], the Eff. % with Phytophthora infestans was found to be 90%. For the same compound, the “Log P” value in series [1] was determined as 3.69.

In the series with Phytophthora infestans, `Cc1nnnn1C(=NOCc1csc(NC(=O)C(C)SCc2ccccc2)n1)c1ccccc1` (stereo not shown) [Example 82] yielded an Eff. % of 100%. The “Log P” value in series [1] is 3.85.

As to `Cc1nnnn1C(=NOCc1cccc(NC(=O)COCC2CCCC2)n1)c1ccccc1` [Example 26], the Eff. % in the series on Phytophthora infestans stood at 97%. In series [1], the “Log P” value amounted to 4.34.

As for `Cc1nnnn1C(=NOCc1cccc(NC(=O)COCC2CC2)n1)c1ccccc1` [Example 23], in the series on Phytophthora infestans, the Eff. % is reported as 95%. Moreover, in series [1], the “Log P” value amounted to 3.33.

In turn, `Cc1nnnn1C(=NOCc1csc(NC(=O)COCC2CCCC2)n1)c1ccccc1` [Example 36] came in with an Eff. % with Phytophthora infestans of 97%. Also, the “Log P” value in series [1] came to 3.94.

Turning to `CC(C)CCOC(C)C(=O)Nc1cccc(CON=C(c2ccccc2)c2nnnn2C)n1` (stereo not shown) [Example 44], the Eff. % in the series on Phytophthora infestans was determined as 100%. Moreover, the “Log P” value in series [1] is given as 4.41.

`CC(OCC1CCCCC1)C(=O)Nc1nc(CON=C(c2ccccc2)c2nnnn2C)cs1` (stereo not shown) [Example 18] came in with an Eff. % in the series on Phytophthora infestans of 100%. In addition, the “Log P” value in series [1] is 4.64.

Source of the values: patent US20140051575A1 (priority 2011, published 2014).
